The values that follow come from patent US5162336A, “Tetrahydro-pyrido-indoles as cholecystokinin and gastrin antagonists” (Rhone-Poulenc Rorer Pharmaceuticals Inc., priority 1990, dated 1992).

In general, IC50 refers to the point on the concentration scale where inhibition reaches its midpoint.

One experiment deals with T1, CCK-A receptor (Rattus norvegicus, UniProt P30551).
T1 construct: from tissue; host or cells: pancreas membranes of Sprague-Dawley rat
T1 sequence (P30551 1-444): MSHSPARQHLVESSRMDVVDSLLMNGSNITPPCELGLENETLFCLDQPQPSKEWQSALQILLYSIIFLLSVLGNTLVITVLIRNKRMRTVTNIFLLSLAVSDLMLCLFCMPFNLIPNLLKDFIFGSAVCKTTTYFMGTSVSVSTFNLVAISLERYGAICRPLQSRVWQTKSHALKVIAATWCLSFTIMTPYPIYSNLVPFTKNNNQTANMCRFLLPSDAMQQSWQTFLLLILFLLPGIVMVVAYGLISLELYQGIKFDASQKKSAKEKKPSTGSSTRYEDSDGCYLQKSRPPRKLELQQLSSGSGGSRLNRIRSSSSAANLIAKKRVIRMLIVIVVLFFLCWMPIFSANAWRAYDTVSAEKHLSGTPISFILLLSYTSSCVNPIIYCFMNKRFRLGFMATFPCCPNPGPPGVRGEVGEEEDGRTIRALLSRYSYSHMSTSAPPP
The experiment in a line: CCK-A receptor binding assay (displacement of 3H-L-364,718 from rat pancreas membranes). The settings on record: 3H-L-364,718 0.2 nM, 37° C., 30 min, read-out: In vitro Binding Data IC50 CCK. The arrangement: species or system Sprague-Dawley rat. As to the method: Washer Buffer (for use with Brandel Cell Harvester):
30 liters of 50 mM Tris, ph 7.7: Dissolve 181.7 g. Tris base in 4 1. deionized water at room temperature. Adjust pH to 7.7 with 6 N HCl and Q.S. to 30 1.
50 mM Tris-Cl, 5 mM MgCl2, 5 mM dithio-thretiol, 0.14 mg/ml bacitracin, and 2 mg/ml bovine serum albumin.
1 liter of 5X stock buffer:
30.28 g. Tris base per 800 ml D.I. water 5.09 g. MgCl2 6 H2 O, pH to 7.7 at room temperature with 6N HCl and Q.S. 1 liter, store at 4° C.
250 ml working buffer kept on ice:
50 ml of 5X stock buffer 0.1928 g. dithiothretiol (5 mM), 35 mg bacitracin (0.14 mg/ml), and 0.5 g. BSA (2mg/ml).
Unlabeled L-364,718(nonpeptide ligand):
Unlabeled L-364,718 (300 nM final concentration) is used to define nonspecific binding. A 3 mM solution is made in absolute ethanol and stored in a scintillation vial at -70° C. Aliquots are diluted 100-fold in the assay.
A Sprague-Dawley rat is sacrificed by asphyxiation with carbon dioxide and the pancreas removed. The tissue is immersed in cold wash buffer and carefully trimmed of fat, connective tissue, blood vessels, blotted and weighed. The tissue is homogenized in a Sorvall SS-34 centrifuge tube in 50 volumes of wash buffer using a Polytron at setting 7 for 15 seconds. The tissue is centrifuged (Sorvall SS-34) at 19,000 rpm for 10 min. The supernatant is poured off and the pellet resuspended in sufficient buffer to obtain a contraction of 40 mg tissue wet weight/ml. Separate aliquots (2,3ml) are placed in each of 8 centrifuge tubes and centrifuged as before. The supernatants are poured off and the pellets stored at -70° C. Stored pellets are sufficient for the assay of 160 tubes and are stable for 1-2 months.
During the assay the stored membranes are resuspended in 40 ml of assay buffer by scraping the pellet off the wall of the centrifuge tube and washing it into a teflon-glass homogenizer. Membranes are resuspended by 5 passes with the teflon pestle and the membranes stored on ice until ready for use.
Preparation of Compounds:
Compounds are prepared in DMSO (dimethyl sulfoxide) or in assay buffer. The majority of structures active as CCK antagonists generally require DMSO for complete solubility. Approximately 2-3 mg of compound is weighed directly into a 13×100 mm test tube and sufficient DMSO added to obtain a working stock solution at a concentration 100 fold greater than the highest concentration being tested in the assay. A total of 10 μl of each concentration of drug is added into a final volume of 1 ml to yield a 100 fold dilution of the, working stock solution. Control binding tubes ("totals and nonspecifics") are also treated with 10 μl DMSO.
^3 H-L-364,718 is obtained from New England Nuclear (Cat. #971) and is used as supplied. The final assay concentration of ^3 H-L-364,718 in assay buffer should be 0.2 nM in a final assay volume of 1 ml. ^3 H-L-364,718 (0.2 pmol) is added into the assay in a volume of 25 μl (8 nM working stock solution). The required dilution (usually>1000 fold) is obtained by dividing the working stock concentration into the concentration of the specific lot.
Samples are prepared in triplicate and a "total" (buffer addition) and "nonspecific" (300 nM unlabeled L-364,718) set of tubes included in each set of 24 tubes. The remaining 6 sets of triplicates are used either for screening or IC50 determinations. The order of addition is drugs-DMSO, buffer, unlabeled L-364,718, ^3 H-L-364,718, and to start the assay, membranes.
While tubes are incubating a shaking water bath at 37° C. for 30 min Brandel deposit/dispense filters are presoaked in wash buffer. Following the end of the incubation, sets of 24 tubes are rapidly washed with assay buffer as follows. Assay buffer is added to the incubation tubes to the height of the uppermost cross support in the standard Brandel test tube rack and the contents immediately aspirated. This process is repeated twice more, the filter removed, marked and the next set of 24 tubes processed. […]
A general note: Displacement assays read how much labelled ligand stays bound in the presence of the test substance.

Experiment [1] addresses T2, Gastrin receptor (Cavia porcellus, UniProt H0VZC5).
T2 construct: The fundic mucosa is gently scraped off the submucosa; from tissue; host or cells: gastric glands from fundic mucosa of Hartley guinea pig
T2 sequence (H0VZC5 1-426): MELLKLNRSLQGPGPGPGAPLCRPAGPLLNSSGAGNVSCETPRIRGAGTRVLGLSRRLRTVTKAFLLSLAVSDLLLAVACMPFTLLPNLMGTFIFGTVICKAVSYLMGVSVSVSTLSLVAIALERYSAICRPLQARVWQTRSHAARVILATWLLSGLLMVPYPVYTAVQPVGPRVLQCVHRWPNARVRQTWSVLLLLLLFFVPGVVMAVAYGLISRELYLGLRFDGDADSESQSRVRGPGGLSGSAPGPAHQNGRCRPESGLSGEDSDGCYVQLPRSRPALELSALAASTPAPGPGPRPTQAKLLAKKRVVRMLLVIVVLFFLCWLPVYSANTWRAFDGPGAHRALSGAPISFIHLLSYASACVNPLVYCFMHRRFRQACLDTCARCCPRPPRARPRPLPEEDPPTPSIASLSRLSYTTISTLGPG
In words: Gastrin receptor binding assay (displacement of 125I-(Leu-15)-Gastrin from guinea pig fundic glands). Further details: species or system guinea pig (Hartley Strain). The settings on record: guinea pig fundic mucosa glands, 25° C., 30 min, read-out: In vitro Binding Data IC50 Gastrin. The procedure: (a) Phosphate Buffered Saline (PBS): 8.743 g NaCl, 523 mg K2 HPO4 and 76.8 mg NaH2 PO4 is dissolved in 1.0 liter of deionized water and the pH of the solution is adjusted to 7.3 with 5N NaOH.
(b) Buffer A: While adding Basal Medium Eagle (BME) containing Earle's Salts, L-glutamine and 25 mM HEPES, 3 liters of deionized water is stirred, followed by the addition and dissolution of […] of sodium bicarbonate. The solution is then equilibrated with 95% O2 /5% CO2 gas followed by titration to a pH of 7.4 with NaOH.
(c) Buffer B: 18.75 mg of collagenase and […] of BSA is dissolved in 25 ml of Buffer A.
(d) Buffer C: 0.3 g of BSA is dissolved in 300 ml of Buffer A.
(e) 6.25 mg Bacitracin is dissolved in 25 ml of Buffer A.
(f) ^125 I-(Leu-15)-Gastrin: 100 microcurie dissolved in 2.0 ml of Buffer A to make 50 microcurie/ml.
(g) ^125 I-(15-methionine)-Human Gastrin: 50 microcurie/ml.
(h) (Leu 15)-Gastrin: 5.2 mg of (Leu-15)- Gastrin is dissolved in 10 ml of Buffer A. At the time of assay 1:10 dilution is made and 10 μl assay tube is used.
A guinea pig (Hartley Strain) weighing 150-200 grams, is sacrificed by CO2 asphyxiation and the stomach immediately excised, cut along the greater curvature, cleaned out and immediately immersed in a beaker containing cold PBS, pH 7.3, to insure thorough cleaning. The fundic mucosa is gently scraped off the submucosa and added to a preweighed 50 ml plastic centrifuge tube containing 30 ml of cold Buffer A. The weight of the plastic centrifuge tube containing the buffer is then subtracted from the combined weight of the mucosa and the buffer-containing tube to give the weight of the mucosa. The weight of the mucosa thus determined is recorded for later calculations.
The mucosa is then washed twice in Buffer A. After the final wash, the tissue is minced and is placed in a 100-ml glass beaker containing about 1.0 ml of Buffer A, and washed twice again by repeated centrifugation at 50×g for 5 minutes each and aspiration of supernatant. The washed tissue fragments are then added to a glass Erlenmeyer flask containing 25 ml of Buffer B and incubated in a Dubnoff shaking water bath at 37° C. for 30 minutes in a 95% O2 - 5% CO2 atmosphere. After the incubation, the digested tissue fragments in the Collegenase-buffer solution are triturated, filtered through a 200-micron nylon mesh and centrifuged at 50×g for 5 minutes. The supernatant is aspirated and discarded, the tissue washed 2× in Buffer C, resuspended in same buffer, incubated in a 37° C. water bath in an atmosphere of 95% O2 - 5% CO2 for 5 minutes, and centrifuged. The pelleted glands are suspended in Buffer D at a desired concentration of 2x10^5 glands/ml to use in the receptor binding assay.
Six minisorp tubes (16×100 mm) are serially marked and divided into two groups thus: tubes #1, #2, and #3 are marked "T" for "Totals" and tubes #4, #5, and #6 are marked "NS" for "Non-Specifics." Into each of the six tubes are added 220 μl of prepared glands in Buffer D; 20 μl of Buffer A in tubes #1, #2, and #3; 10 μl, in tubes #4, #5 and #6; (10μ of (Leu-15)-Gastrin (25 μM) in tubes #4, #5, and #6. The six tubes are then transferred immediately to a 25° C. water bath and challenged each with 10 μl ^125 I-(Leu-15)-Gastrin diluted as per calculation. The tubes are then covered with a gas hood connected to a 95% O2 - 5% CO2 gas source and mechanically agitated in a shaker for 30 minutes.
At the end of the incubation period, the assay mixtures are each filtered through a Whatman glass fiber filter B on a Brandel tissue harvester and washed twice with Buffer A. The filters are pre-soaked in Buffer C before use. The filter strips are removed after the final wash and individual filters counted in a Gamma Counter. The counts from the "Non-Specific" tubes are then averaged and subtracted from the average "Totals" to give the Specific Counts. […]

The subject of experiment [2] is peripherial gastrin and CCK-B (brain) receptors. The settings on record: cited from earlier work.
Experiment [3] relates to CCK-A (peripheral CCK) receptor. The settings on record: second generation proglumide analogues; cited from earlier work.
Experiment [4] deals with gastrin receptor. The settings on record: cited from earlier work.
The test system of experiment [5] is gastrin receptor. The settings on record: cited from earlier work. This is another data set of the same source.
The subject of a further experiment is gastrin. The settings on record: rat (in vivo); cited from earlier work.

`NC(=O)[C@H](CC(=O)OCc1ccccc1)NC(=O)[C@H]1Cc2c([nH]c3ccccc23)CN1C(=O)c1ccccc1` [Example 7, N-[(3R)-2-benzoyl-1,2,3,4-tetrahydro-9H-pyrido[3,4-b]indole-3-carboxyl]-L-aspartic acid amide β-benzyl ester]: at CCK-A receptor, the half-maximal inhibitory concentration (IC50) came to 25 µM. As for `COc1ccc(NC(=O)N2Cc3[nH]c4ccccc4c3C[C@@H]2C(=O)Nc2ccccc2C(=O)N2CCCC2)cc1` [Example 21, pyrrolidine-2-N-[(3R)-2-(4-methoxyphenylcarbamoyl)-1,2,3,4-tetrahydro-9H-pyrido[3,4-b]indole-3-carboxyl]aminobenzamide], the IC50 at Gastrin receptor [1] is 90 µM.

As to `NC(=O)[C@H](CC(=O)O)NC(=O)[C@@H]1CCCN1C(=O)[C@H]1Cc2c([nH]c3ccccc23)CN1C(=O)Nc1ccc(Cl)c(Cl)c1` [Example 25], the IC50 at Gastrin receptor [1] stood at 0.23 µM. The same measure, in the same setting: in the case of `CC(C)C[C@@H](NC(=O)[C@@H]1Cc2c([nH]c3ccccc23)CN1C(=O)Nc1ccc(Cl)c(Cl)c1)C(=O)N[C@H](CC(=O)O)C(N)=O` [Example 71] it was 4 µM. For the compound `Cc1cccc(NC(=O)N[C@@H]2N=C(c3ccccc3)c3ccccc3N(C)C2=O)c1` [L-365,260], in experiment [2], the “selectivity for peripheral gastrin and CCK-B (brain) receptors” value was “selective for the peripherial gastrin and CCK-B (brain) receptors”. As to `CCCCCN(CCCCC)C(=O)C(CCC(=O)O)NC(=O)c1ccc(Cl)c(Cl)c1` (centres unmarked) [Lorglumide], the “receptor affinity and selectivity” value in experiment [3] is “considerably better receptor affinity and selectivity”. Regarding `CCCCCN(CCCOC)C(=O)C(CCC(=O)O)NC(=O)c1ccc(Cl)c(Cl)c1` (centres unmarked) [Loxiglumide], the “receptor affinity and selectivity” value in experiment [3] was “considerably better receptor affinity and selectivity”. On to Boc-Trp-Leu-.PSI.(CH2 NH)-Asp-Phe-NH2, for which the binding affinity result with gastrin receptor [4] (compared with Boc-Trp-Leu-Asp-Phe-NH2) is on record as “same binding affinity as Boc-Trp-Leu-Asp-Phe-NH2”. In the experiment on gastrin receptor [5], the agonist activity entry is “no agonist activity”. In the case of Boc-Trp-Leu-gAsp-m(R,S)Phe-NH2, in the experiment on gastrin, the “block the effects of gastrin” value is given as “block the effects of gastrin”. In the experiment on gastrin receptor [4] (analogues of CCK-4 with partial retroinverso modifications), the “binding to the gastrin receptor” value is “bind strongly”.
